Results from patent US20030138935A1, “Selective deactivation of yeast in corn wet milling process slurries” (priority 2002, published 2003).
Several values for one entry are separate records, joined by “and”; a condition that tells them apart may be missing. Identical values can stand only once.

How the values were obtained:
yeast and mold = test: Pour-plate culture on Potato-Dextrose Agar (PDA); assay type: cell-based; settings: test concentrations from 10-50 ppm; 4 hour and 24 hour incubations
Experimental: (§1) All tests were conducted using heavy […] samples provided by a major U.S. corn wet milling facility. To confirm the concept that octanoic acid is selective in killing only yeast but not desirable bacteria, microbiological activity was assessed by examining separate culture plates prepared using two different agars. Plates prepared using Potato-Dextrose Agar (PDA) were used to assess the fate of yeast in the present of octanoic acid, as PDA is known to be specific to the propagation of yeast and mold. Plates prepared using Sabourad-Dextrose Agar (SDA) were used to determine the fate of “desired” bacteria as SDA is specific for both yeast and lactic acid producing bacteria. Several serial dilutions (10^1 to 10^7) of heavy […] samples were prepared for the pour plates at 0 ppm (control), 10 ppm, 25 ppm, and 50 ppm (active) of octanoic acid, then agitated in a 100° F. shaking water bath for 4 hours. Plates were similarly prepared using the same samples after agitation for 24 hours. All plates were incubated at […]. for 4 days before performing measurements. In addition to inspecting the plates for microbial activity, aliquots of each sample (after 4 hours and after 24 hours) were examined under a microscope for visual speciation.

[1] = system: gas-producing microorganisms in corn wet milling heavy steepwater; test: Flask Pressure Profile (gas production in heavy steepwater); assay type: cell-based, yeast; settings: for Manometer readings: 100° F.
Experimental: All tests were conducted using heavy […] samples provided by a major U.S. corn wet milling facility. A Flask Pressure Profile method was developed and used to measure changes in gas production. The sample of heavy […] to an Erlenmeyer flask, then placed into a water bath at 100° F. and agitated slowly (30-40 rpm). The flask was connected to a U-tube manometer filled with distilled water. […] An increase in flask pressure indicated gas-producing microbial activity. Tests using octanoic acid were performed in […] ppm (control), 10 ppm, 25 ppm, and 50 ppm (active).

[2] = system: yeast and lactic acid producing bacteria; test: Pour-plate culture on Sabourad-Dextrose Agar (SDA); assay type: cell-based, lactobacillus; settings: for Plate Showing activity, SDA: serial dilution
Experimental: as §1

For `CCCCCCCC(=O)O` [Octanoic Acid, Octanoic acid], the Effect on yeast (yeast and mold) was “selectively kills the yeast”, the Manometer readings ([1]; 10 ppm, t = 0 hours) was 0.0 in H2O and 0 in H2O and the Manometer readings ([1]; 10 ppm, t = 1 hours) was 0.0 in H2O. It also gave a Manometer readings ([1]; 10 ppm, t = 1.5 hours) of 0.0 in H2O, a Manometer readings ([1]; 10 ppm, t = 2 hours) of 0.0 in H2O and a Manometer readings ([1]; 10 ppm, t = 2.5 hours) of 0.0 in H2O. It also gave a Manometer readings ([1]; 10 ppm, t = 3 hours) of 0.0 in H2O, a Manometer readings ([1]; 10 ppm, t = 3.5 hours) of 0.0 in H2O and a Manometer readings ([1]; 10 ppm, t = 4 hours) of 0.0 in H2O. It also gave a Manometer readings ([1]; 10 ppm, t = 4.5 hours) of 0.0 in H2O, a Manometer readings ([1]; 10 ppm, t = 5 hours) of 0.0 in H2O and a Manometer readings ([1]; 10 ppm, t = 5.5 hours) of 0.0 in H2O. It also gave a Manometer readings ([1]; 10 ppm, t = 6 hours) of 0.0 in H2O, a Manometer readings ([1]; 10 ppm, t = 6.5 hours) of 0.0 in H2O and a Manometer readings ([1]; 25 ppm, t = 0 hours) of 0.0 in H2O. For the same molecule, the Manometer readings ([1]; 25 ppm, t = 0.5 hours) was 0.25 in H2O, the Manometer readings ([1]; 25 ppm, t = 1 hours) was 0.0 in H2O and the Manometer readings ([1]; 25 ppm, t = 1.5 hours) was 0.0 in H2O. For the same molecule, the Manometer readings ([1]; 25 ppm, t = 2 hours) was 0.0 in H2O, the Manometer readings ([1]; 25 ppm, t = 2.5 hours) was 0.0 in H2O and the Manometer readings ([1]; 25 ppm, t = 3 hours) was 0.0 in H2O. For the same molecule, the Manometer readings ([1]; 25 ppm, t = 3.5 hours) was 0.0 in H2O, the Manometer readings ([1]; 25 ppm, t = 4 hours) was 0.0 in H2O and the Manometer readings ([1]; 25 ppm, t = 4.5 hours) was 0.0 in H2O. For the same molecule, the Manometer readings ([1]; 25 ppm, t = 5 hours) was 0.0 in H2O, the Manometer readings ([1]; 25 ppm, t = 5.5 hours) was 0.0 in H2O and the Manometer readings ([1]; 25 ppm, t = 6 hours) was 0.0 in H2O. The Manometer readings ([1]; 25 ppm, t = 6.5 hours) was 0.0 in H2O, the Manometer readings ([1]; 50 ppm, t = 0 hours) was 0.0 in H2O and the Manometer readings ([1]; 50 ppm, t = 0.5 hours) was 0.0 in H2O. For the same molecule, the Manometer readings ([1]; 50 ppm, t = 1 hours) was 0.0 in H2O, the Manometer readings ([1]; 50 ppm, t = 1.5 hours) was 0.0 in H2O and the Manometer readings ([1]; 50 ppm, t = 2 hours) was 0.0 in H2O. For the same molecule, the Manometer readings ([1]; 50 ppm, t = 2.5 hours) was 0.0 in H2O, the Manometer readings ([1]; 50 ppm, t = 3 hours) was 0.0 in H2O and the Manometer readings ([1]; 50 ppm, t = 3.5 hours) was 0.0 in H2O. For the same molecule, the Manometer readings ([1]; 50 ppm, t = 4 hours) was 0.0 in H2O, the Manometer readings ([1]; 50 ppm, t = 4.5 hours) was 0.0 in H2O and the Manometer readings ([1]; 50 ppm, t = 5 hours) was 0.0 in H2O. For the same molecule, the Manometer readings ([1]; 50 ppm, t = 5.5 hours) was 0.0 in H2O, the Manometer readings ([1]; 50 ppm, t = 6 hours) was 0.0 in H2O and the Manometer readings ([1]; 50 ppm, t = 6.5 hours) was 0.0 in H2O. The “Effect on gas-producing microorganisms” value ([1]; all of the applied dosages (10, 25, 50 ppm), heavy steepwater) was “effectively reduces all gas-producing microorganisms”, the “Plate Showing activity, SDA” value ([2]; 10 ppm, sample incubation time 4 hrs) was 10^2 and the “Plate Showing activity, SDA” value ([2]; 10 ppm, sample incubation time 24 hrs) was 10^2. The “Plate Showing activity, SDA” value ([2]; 25 ppm, sample incubation time 4 hrs) was 10^1, the “Plate Showing activity, SDA” value ([2]; 25 ppm, sample incubation time 24 hrs) was 10^2 and the “Plate Showing activity, SDA” value ([2]; 50 ppm, sample incubation time 4 hrs) was 10^2. For the same molecule, the “Plate Showing activity, SDA” value ([2]; 50 ppm, sample incubation time 24 hrs) was 10^2 and the “Effect on activity of lactobacillus” value ([2]; test concentrations from 10-50 ppm, 4 hour and 24 hour incubations) was “do not measurably decrease the activity of lactobacillus”.
